Experimental data taken from ChEMBL document CHEMBL5500372, “Novel natural osthole-inspired amphiphiles as membrane targeting antibacterials against methicillin-resistant Staphylococcus aureus (MRSA)” (Eur J Med Chem, 2024).
Converted amounts (≈) assume the structure as drawn.

Columns and labels:
Escherichia coli = experiment: Antibacterial activity against Escherichia coli ATCC 25922 measured after 18 hrs by CLSI based broth microdilution method; format: functional
Staphylococcus aureus [1] = experiment: Antibacterial activity against methicillin-resistant Staphylococcus aureus clinical isolate 22 measured after 18 hrs by CLSI based broth microdilution method; format: functional
Staphylococcus aureus [2] = experiment: Antibacterial activity against methicillin-resistant Staphylococcus aureus clinical isolate 12 measured after 18 hrs by CLSI based broth microdilution method; format: functional
Staphylococcus aureus [3] = experiment: Antibacterial activity against methicillin-resistant Staphylococcus aureus clinical isolate 14 measured after 18 hrs by CLSI based broth microdilution method; format: functional
[4] = Hemolytic activity in sheep erythrocyte assessed as hemolysis incubated for 1 hr by absorbance based analysis; format: toxicity, cell-based, Ovis aries; settings: sheep erythrocytes
Staphylococcus aureus [5] = experiment: Antibacterial activity against methicillin-resistant Staphylococcus aureus clinical isolate 20 measured after 18 hrs by CLSI based broth microdilution method; format: functional
Staphylococcus aureus [6] = experiment: Antibacterial activity against methicillin-resistant Staphylococcus aureus clinical isolate 23 measured after 18 hrs by CLSI based broth microdilution method; format: functional
Staphylococcus aureus [7] = experiment: Antibacterial activity against methicillin-resistant Staphylococcus aureus clinical isolate 21 measured after 18 hrs by CLSI based broth microdilution method; format: functional
Staphylococcus aureus [8] = experiment: Antibacterial activity against methicillin-resistant Staphylococcus aureus clinical isolate 11 measured after 18 hrs by CLSI based broth microdilution method; format: functional
Staphylococcus aureus [9] = experiment: Antibacterial activity against methicillin-resistant Staphylococcus aureus clinical isolate 16 measured after 18 hrs by CLSI based broth microdilution method; format: functional
Staphylococcus aureus [10] = experiment: Antibacterial activity against Staphylococcus aureus ATCC 29213 measured after 18 hrs by CLSI based broth microdilution method; format: functional
Staphylococcus aureus [11] = experiment: Antibacterial activity against methicillin-resistant Staphylococcus aureus clinical isolate 13 measured after 18 hrs by CLSI based broth microdilution method; format: functional
Staphylococcus aureus [12] = experiment: Antibacterial activity against methicillin-resistant Staphylococcus aureus clinical isolate 17 measured after 18 hrs by CLSI based broth microdilution method; format: functional
[13] = Selectivity index, ratio of HC50 for hemolytic activity in sheep erythrocyte assessed as hemolysis to MIC for antibacterial activity against Staphylococcus aureus ATCC 29213; format: toxicity; settings: sheep erythrocytes, read-out: Selectivity Index

SMILES | MIC (Escherichia coli) | MIC (Staphylococcus aureus [1]) | MIC (Staphylococcus aureus [2]) | MIC (Staphylococcus aureus [3]) | HC50 at 1 h [4] | MIC (Staphylococcus aureus [5]) | MIC (Staphylococcus aureus [6]) | MIC (Staphylococcus aureus [7]) | MIC (Staphylococcus aureus [8]) | MIC (Staphylococcus aureus [9]) | MIC (Staphylococcus aureus [10]) | MIC (Staphylococcus aureus [11]) | MIC (Staphylococcus aureus [12]) | selectivity ratio [13]
CCNC(=O)C[N+](C)(C)CCCCOc1ccc2ccc(=O)oc2c1CC=C(C)C.[Br-] | 128 µg/mL | 128 µg/mL | 128 µg/mL | 128 µg/mL | > 1280 µg/mL | 64 µg/mL | 128 µg/mL | 128 µg/mL | 128 µg/mL | 128 µg/mL | 128 µg/mL | 128 µg/mL | 128 µg/mL | > 10
CCCN(CCC)C(=O)C[N+](C)(C)CCCCCOc1ccc2ccc(=O)oc2c1CC=C(C)C.[Br-] | 128 µg/mL | 4 µg/mL | 16 µg/mL | 8 µg/mL | 779 µg/mL | 8 µg/mL | 8 µg/mL | 8 µg/mL | 8 µg/mL | 8 µg/mL | 8 µg/mL | 8 µg/mL | 8 µg/mL | 97.4
CCCCCNC(=O)C[N+](C)(C)CCCOc1ccc2ccc(=O)oc2c1CC=C(C)C.[Br-] | 128 µg/mL | 8 µg/mL | 16 µg/mL | 16 µg/mL | 1200 µg/mL | 8 µg/mL | 8 µg/mL | 8 µg/mL | 16 µg/mL | 8 µg/mL | 16 µg/mL | 16 µg/mL | 16 µg/mL | 75.3
CC(C)=CCc1c(OCCCCC[N+](C)(C)CC(=O)N(C(C)C)C(C)C)ccc2ccc(=O)oc12.[Br-] | > 128 µg/mL | 4 µg/mL | 8 µg/mL | 4 µg/mL | 736 µg/mL | 4 µg/mL | 4 µg/mL | 4 µg/mL | 8 µg/mL | 4 µg/mL | 4 µg/mL | 8 µg/mL | 4 µg/mL | 184
CC(C)=CCc1c(OCCC[N+](C)(C)CC(=O)N(C(C)C)C(C)C)ccc2ccc(=O)oc12.[Br-] | 128 µg/mL | 16 µg/mL | 16 µg/mL | 16 µg/mL | > 640 µg/mL | 32 µg/mL | 16 µg/mL | 16 µg/mL | 16 µg/mL | 16 µg/mL | 16 µg/mL | 16 µg/mL | 16 µg/mL | > 40
CCCCCCNC(=O)C[N+](C)(C)CCCCOc1ccc2ccc(=O)oc2c1CC=C(C)C.[Br-] | 64 µg/mL | 4 µg/mL | 8 µg/mL | 4 µg/mL | > 1280 µg/mL | 4 µg/mL | 2 µg/mL | 4 µg/mL | 4 µg/mL | 2 µg/mL | 4 µg/mL | 4 µg/mL | 4 µg/mL | > 320
COc1ccc2ccc(=O)oc2c1CC=C(C)C [OSTHOLE] | > 64 µg/mL | 64 µg/mL (≈ 262 µM) | 64 µg/mL (≈ 262 µM) | 64 µg/mL (≈ 262 µM) | > 80 µg/mL | 64 µg/mL (≈ 262 µM) | > 64 µg/mL | > 64 µg/mL | > 64 µg/mL | 64 µg/mL (≈ 262 µM) | > 64 µg/mL | > 64 µg/mL | 64 µg/mL (≈ 262 µM) | 
CCCCNC(=O)C[N+](C)(C)CCCCCOc1ccc2ccc(=O)oc2c1CC=C(C)C.[Br-] | 128 µg/mL | 8 µg/mL | 16 µg/mL | 8 µg/mL | 798 µg/mL | 8 µg/mL | 8 µg/mL | 8 µg/mL | 8 µg/mL | 8 µg/mL | 8 µg/mL | 8 µg/mL | 8 µg/mL | 99.8
CCCCN(CCCC)C(=O)C[N+](C)(C)CCCOc1ccc2ccc(=O)oc2c1CC=C(C)C.[Br-] | 128 µg/mL | 4 µg/mL | 8 µg/mL | 4 µg/mL | 1090 µg/mL | 4 µg/mL | 4 µg/mL | 4 µg/mL | 4 µg/mL | 4 µg/mL | 4 µg/mL | 4 µg/mL | 8 µg/mL | 272
C[C@@H](O)[C@H]1C(=O)N2C(C(=O)O)=C(S[C@@H]3CN[C@H](C(=O)N(C)C)C3)[C@H](C)[C@H]12 [MEROPENEM] | 0.062 µg/mL (≈ 0.162 µM) |  |  |  |  |  |  |  |  |  |  |  |  | 
